Values belong to the compound of their own block, whether it stands above or below them.
How the values were obtained:
INS-1 832/3 cells = assay: Insulin release after overnight incubation, INS-1 832/3 cells; type: cell-based; details: 16 h (overnight), range of concentrations, 11 mM glucose, HTRF
Method: (§1) Mouse islets (10/well) were incubated in triplicate for each condition and treatment. Islets were preincubated for 1 hour in 3 mM glucose KRH buffer prior to secretion assay (30 min) in 3 mM or 11 mM glucose with vehicle or 100 nM SM102 or Semaglutide. The secretion medium was then collected to measure the insulin and proinsulin concentrations using an insulin HTRF kit (Cisbio Bioassays). INS-1 832/3 cells were treated with the indicated concentrations of SM102 or Semaglutide for 16 h in complete RPMI1640 medium at 11 mM glucose. A sample of supernatant was collected and analyzed for insulin content by HTRF.

GLP-1R [1] = biological target: T1, GLP-1R (Homo sapiens, UniProt P43220); assay: GLP-1R binding affinity; set-up: expressed in transfected cells; details: compared to Semaglutide
T1 sequence (P43220 24-463): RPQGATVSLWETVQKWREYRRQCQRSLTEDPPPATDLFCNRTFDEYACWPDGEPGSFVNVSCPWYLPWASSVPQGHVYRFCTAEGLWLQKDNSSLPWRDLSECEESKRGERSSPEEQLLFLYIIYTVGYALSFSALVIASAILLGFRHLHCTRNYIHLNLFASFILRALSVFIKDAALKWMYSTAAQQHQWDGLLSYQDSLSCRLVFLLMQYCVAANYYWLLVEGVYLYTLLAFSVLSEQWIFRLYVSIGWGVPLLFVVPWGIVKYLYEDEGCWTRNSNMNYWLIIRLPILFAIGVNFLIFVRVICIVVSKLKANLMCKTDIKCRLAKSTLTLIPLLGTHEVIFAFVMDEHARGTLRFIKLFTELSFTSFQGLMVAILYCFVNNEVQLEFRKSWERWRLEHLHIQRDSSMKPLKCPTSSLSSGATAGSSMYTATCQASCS

GLP-1R [2] = biological target: T1, GLP-1R; assay: PathHunter β-arrestin-2 recruitment; type: cell-based; set-up: host or cells: CHO-K1 (PathHunter); details: SM102 vs Semaglutide; 30 min at 37°C, luminescence
Method: (§2) HEK293 cells stably expressing human GLP-1R (hGLP-1 R) (generated in-house using HEK293 cell line purchased from ATCC, Cat# CRL-1573) were maintained in Dulbecco’s Modified Eagle Medium (DMEM, Gibco, 11,054,020) with 10% fetal bovine serum (FBS, Gibco, 10,099,133 C), 1% penicillin/streptomycin (Gibco, 10,378,016) and 1 mg/mL G418 (Gibco, 10,131,035). Wild-type INS-1 832/3 cells, or INS-1 832/3 cells lacking endogenous GLP-1 R (generated in-house using INS-1 832/3 cell line purchased from NTCC, Cat# CVCL_ZL55) were maintained in RPMI-1640 (Gibco, 22,400,071) with 1 mM sodium pyruvate (Gibco, 11,360,070), 50 μM β-mercaptoethanol (Gibco, 21,985,023), 10% FBS, and 1% penicillin/streptomycin. PathHunter CHO-K1-βarr2-EAGLP1R cells (DiscoverX) were maintained in F12 medium (Gibco, 11,320,033) with 10% FBS, 1% penicillin/streptomycin, 1 mg/mL G418 and 250 μg/mL hygromycin (Gibco, 10,687,010).
PathHunter CHO-K1-βarr2-EA-GLP-1 R cells were stimulated with agonist for 30 min at 37°C in Ham’s F12 medium (Gibco, 11,765,054) without FBS. At the end of the incubation period cells were lysed by addition of PathHunter detection reagents and luminescent signal was subsequently recorded from each well.

diabetic DES mice = assay: Chronic administration study in diabetic DES mice; type: in vivo, mouse; details: for increase in number of conjunctival goblet cells vs control mice: PAS staining
Method: DES in db/db mice was induced by twice daily administration of 5 μL of 0.2% benzalkonium chloride (Sigma-Aldrich) for 7 days. All diabetic DES mice were divided into vehicle group, SM102 treatment groups (1, 3 and 9 nmol/kg), Semaglutide treatment group (15 nmol/kg), and dulaglutide (1.5 nmol/kg) (n = 8 per group; 4 male, 4 female). The drugs were injected subcutaneously into the neck region of the animals on every other day for 4 weeks.
The mouse’s lower eyelid was gently pulled downward, and a line with a 1 mm length of the phenol red cotton thread was placed on the upper part of the palpebral conjunctiva for 15 seconds near the inner part about one-third of the distance from the outer corner of the eyelid. The length of the colored part of the phenol red thread was recorded as the tear secretion. 1 μL of 0.1% liquid fluorescein sodium was instilled into the conjunctival sac followed by three blinks, and tear breakup time (BUT) was recorded in seconds.
[…] The levels of interleukin-6 (IL-6), interleukin-1β (IL-1β), tumor necrosis factor-α (TNF-α), transforming growth factor β1 (TGF-β1) and malondialdehyde (MDA) as well as superoxide dismutase (SOD) activity in the supernatant were measured using appropriate ELISA kits brought from R&D company (USA). The expression levels of p38/p-p38, JNK/pJNK and ERK/p-ERK were analyzed by Western blot methods as previously reported.
Hematoxylin and eosin (H&E) staining were performed as described below: Corneas were fixed in 4% formalin. After dehydration, the specimens were embedded in paraffin and serial sections of 6 μm thickness were cut and stained with a hematoxylin-eosin reagent. Periodic Acid–Schiff (PAS) staining were performed as described below: Conjunctiva was fixed in 4% formalin. After dehydration, the specimens were embedded in paraffin and serial sections of 6 μm thickness were cut and stained with 0.5% PAS staining. The number of positively stained cup-shaped cells in the stained conjunctival sections was counted using image-Pro Plus6.0 (MediaCybernetics, USA).

[3] = Pharmacokinetics in CD-1 mice; type: in vivo, mouse
GLP-1R [4] = biological target: T1, GLP-1R; assay: GLP-1R endocytosis, high content imaging; type: cell-based; set-up: expressed in transfected cells; details: no clear difference in kinetics between the two ligands
mouse pancreatic islets = assay: Static acute insulin secretion, mouse islets; type: cell-based
Method: Mice were euthanized by cervical dislocation and pancreatic islets isolated by collagenase digestion as previously described and cultured in RPMI 1640 medium, 11 mM glucose, supplemented with 10% (v/v) FBS plus penicillin (100 units/mL), and streptomycin (0.1 mg/mL) at 37°C in an atmosphere of humidified air (95%) and CO2 (5%).
as §1, with “Islets were preincubated for 1 hour in 3 mM glucose KRH buffer prior to secretion assay (30 min) in 3 mM or 11 mM glucose with vehicle or 100 nM SM102 or Semaglutide.” left out

hGLP-1 R = biological target: T2, hGLP-1 R (Homo sapiens, UniProt P43220); assay: GLP-1R recycling assay (exendin-4-TMR uptake); type: cell-based; details: 100 nM agonist 1 hour, washout, exendin-4-TMR 1 or 3 hours; compared to Semaglutide
T2 construct: expressed in transfected cells; host or cells: INS-1 832/3 (abstract: 832/13) rat insulinoma cells
T2 sequence (P43220 24-463): as above
Method: INS-1 hGLP-1 R cells were seeded the day before the assay in 96-well imaging plates. Cells were washed twice with PBS, then stimulated with 100 nM of respective agonist in complete media, with an equal number of wells kept as vehicles. Following stimulation of the cells for 1 hour, they were washed twice with PBS and labeled with exendin-4-TMR13 for either 1 hour or 3 hours, washed again with PBS, and imaged via high content microscopy.

GLP-1R [5] = biological target: T1, GLP-1R; assay: cAMP accumulation (HTRF); type: cell-based; set-up: expressed in transfected cells
Method: as §2
HEK293 stably expressing hGLP-1 R cells were stimulated with agonist for 30 min at 37°C in serum-free medium (Gibco, 12,753,018). cAMP was determined at the end of the incubation period by homogenous time resolved fluorescence (HTRF; cAMP Dynamic 2 kit, Cisbio) using a Molecular Devices iD5 plate reader.

db/db mice = assay: Chronic administration study in db/db mice; type: in vivo, mouse
Method: The diabetic db/db mice (half male and half female, 8–12 weeks, body weight- 40-50 g) were brought from Cavens Company Ltd. (Changzhou) and housed in individual ventilated cages with free access to food and water and maintained on a 12-hour light/dark cycle. Animals were acclimatized for 3 days. On day 0, each animal was weighed using a digital weighing balance. Blood was collected by retro-orbital plexus puncture. Blood glucose level was measured using a hand-held blood glucose meter (Johnson & Johnson) and %HbA1c was measured using auto fluorescence immunoanalyzer.
Animals were divided into treatment groups (n = 8 per group; 4 male, 4 female) with matched baseline %HbA1c levels (mean 7.3%). Vehicle, SM102 (1, 3 and 9 nmol/kg), Semaglutide (15 nmol/kg) were subcutaneously injected into the neck region of the animals on every other day for 4 weeks.
Body weight and food intake were monitored serially. On day 29 of the study, 24 h following the last dose, blood was collected for measurement of %HbA1c, triglycerides, insulin, C-peptide and glucagon. The function of β-cell was assessed via calculating the […] from blood concentrations of glucose and insulin.

[6] = all 3 doses of SM102, Western blot, p < 0.05
[7] = corneal homogenates, 4 weeks, ELISA

GLP-1 R binding affinity (GLP-1R [1]): moderate increases
half-life ([3]; mouse, plasma, sc, single subcutaneous injection, 1 mg/kg, male CD-1 mice): ~47.6 h
GLP-1 R endocytosis (GLP-1R [4]): rapid GLP-1 R endocytosis
GLP-1 R recycling (hGLP-1 R): modestly reduced recycling
cAMP signaling potency (GLP-1R [5]; compared to Semaglutide, agonist 30 min at 37°C, serum-free medium, HTRF, n = 5): signaling potency was increased
SMILES: CC[C@H](C)[C@H](NC(=O)[C@H](Cc1ccccc1)NC(=O)[C@H](CCC(=O)O)NC(=O)[C@H](CCCCNC(=O)COCCOCCNC(=O)C(C)(C)NC(=O)CC[C@H](NC(=O)CCCCCCCCCCCCCCCCC(=O)O)C(=O)O)NC(=O)[C@H](C)NC(=O)[C@H](C)NC(=O)[C@H](CCC(N)=O)NC(=O)CNC(=O)[C@H](CCC(=O)O)NC(=O)[C@H](CC(C)C)NC(=O)[C@H](Cc1ccc(O)cc1)NC(=O)[C@H](CO)NC(=O)[C@H](CO)NC(=O)[C@@H](NC(=O)[C@H](CC(=O)O)NC(=O)[C@H](CO)NC(=O)[C@@H](NC(=O)[C@H](Cc1ccccc1)NC(=O)[C@@H](NC(=O)CNC(=O)[C@H](CCC(=O)O)NC(=O)C(C)(C)NC(=O)[C@@H](N)Cc1c[nH]cn1)[C@@H](C)O)[C@@H](C)O)C(C)C)C(=O)N[C@@H](C)C(=O)N[C@@H](Cc1c[nH]c2ccccc12)C(=O)N[C@@H](CC(C)C)C(=O)N[C@H](C(=O)N[C@@H](CCCNC(=N)N)C(=O)NCC(=O)N[C@@H](CCCNC(=N)N)C(=O)NCC(=O)N[C@@H](CC(C)C)C(N)=O)C(C)C [SM102]
insulin release responses, SM102 vs Semaglutide (INS-1 832/3 cells): virtually indistinguishable
β-arrestin-2 recruitment response potency or Emax (GLP-1R [2]): no differences in response potency or Emax
breakup time of tear film (diabetic DES mice; 4-week treatment): significantly prolonged
tear secretion level vs control group (diabetic DES mice; 4 weeks of treatment, phenol red cotton thread): significantly enhanced
increase in number of conjunctival goblet cells vs control mice (diabetic DES mice; SM102 1 nmol/kg, 4 weeks): approximately 1 fold
increase in number of conjunctival goblet cells vs control mice (diabetic DES mice; SM102 3 nmol/kg, 4 weeks): ~4 fold
tear secretion level vs Semaglutide or dulaglutide (diabetic DES mice; SM102 9 nmol/kg, 4 weeks): significantly higher
increase in number of conjunctival goblet cells vs control mice (diabetic DES mice; SM102 9 nmol/kg, 4 weeks): ~5 fold
phosphorylation level of ERK vs model group (diabetic DES mice; [6]): significantly lower
phosphorylation level of JNK vs model group (diabetic DES mice; [6]): significantly lower
phosphorylation level of p38 vs model group (diabetic DES mice; [6]): significantly lower
concentration of MDA vs vehicle group (diabetic DES mice; corneal homogenate, 4 weeks, ELISA): significantly decreased
level of IL-1β vs control mice (diabetic DES mice; [7]): significantly reduced
level of IL-6 vs control mice (diabetic DES mice; [7]): significantly reduced
level of TGF-β1 vs control mice (diabetic DES mice; [7]): increased
level of TNF-α vs control mice (diabetic DES mice; [7]): significantly reduced
SOD activity (diabetic DES mice; dose range 1 ~ 9 nmol/kg, 4 weeks): dose-dependent significant increase
corneal tissue damage (H&E staining) (diabetic DES mice; medium and high dose SM102, 4 weeks): significantly reversed corneal tissue damage
glucose-stimulated insulin secretion, SM102 vs Semaglutide, lower doses (mouse pancreatic islets; 1 and 10 nM, data not shown): differences were not apparent
glucose-stimulated insulin secretion (GSIS) (mouse pancreatic islets; islets from C57BL/6 mice, 11 mM glucose, 100 nM agonist, 30 min, no difference between agonists): potentiation of GSIS
signaling selectivity in favor of cAMP compared to endocytosis and β-arrestin-2 recruitment (GLP-1R [5]; subtracted pEC50 estimates, SM102 vs Semaglutide, one-way ANOVA with Tukey's test): significant signaling selectivity in favor of cAMP
improvement in blood glucose and insulin secretion vs Semaglutide 15 nmol/kg (db/db mice; SM102 1 nmol/kg, 4 weeks of treatment): comparable to Semaglutide
therapeutic effect vs Semaglutide 15 nmol/kg (db/db mice; SM102 3 nmol/kg s.c. every other day, 28 days): comparable
therapeutic effect vs Semaglutide 15 nmol/kg: weight loss, glucose, HOMA-IR (db/db mice; SM102 9 nmol/kg s.c. every other day, 28 days): superior

Plasma half-life relative to SM-102 ([3]; subcutaneous injection, same dose, CD-1 mice): comparable
SMILES: CC[C@H](C)[C@H](NC(=O)[C@H](Cc1ccccc1)NC(=O)[C@H](CCC(=O)O)NC(=O)[C@H](CCCCNC(=O)COCCOCCNC(=O)COCCOCCNC(=O)CC[C@H](NC(=O)CCCCCCCCCCCCCCCCC(=O)O)C(=O)O)NC(=O)[C@H](C)NC(=O)[C@H](C)NC(=O)[C@H](CCC(N)=O)NC(=O)CNC(=O)[C@H](CCC(=O)O)NC(=O)[C@H](CC(C)C)NC(=O)[C@H](Cc1ccc(O)cc1)NC(=O)[C@H](CO)NC(=O)[C@H](CO)NC(=O)[C@@H](NC(=O)[C@H](CC(=O)O)NC(=O)[C@H](CO)NC(=O)[C@@H](NC(=O)[C@H](Cc1ccccc1)NC(=O)[C@@H](NC(=O)CNC(=O)[C@H](CCC(=O)O)NC(=O)C(C)(C)NC(=O)[C@@H](N)Cc1cnc[nH]1)[C@@H](C)O)[C@@H](C)O)C(C)C)C(=O)N[C@@H](C)C(=O)N[C@@H](Cc1c[nH]c2ccccc12)C(=O)N[C@@H](CC(C)C)C(=O)N[C@H](C(=O)N[C@@H](CCCNC(=N)N)C(=O)NCC(=O)N[C@@H](CCCNC(=N)N)C(=O)NCC(=O)O)C(C)C [Semaglutide, reference compound]
